From patent publication US20020025303A1, “COSMETIC AND/OR DERMATOLOGICAL COMPOSITION CONTAINING A DERIVATIVE OF METHYLATED SILANOL AND A DERIVATIVE OF HYDROLYSED PLANT PROTEIN” (priority 1997, published 2002)

Tested on: normal human fibroblasts (NHDF 784)
Assay: Synthesis of collagen by human fibroblast cultures (radiolabelled proline incorporation)
Type: cell-based
Settings: 72 h incubation, 1/40 dilutions of stock preparations, vitamin C 20 μg/ml, FIG. 4
Experimental: The effect of a composition of the present invention (comprising two anti-glycosylation agents with magnesium ascorbyl phosphate) on the stimulation of the synthesis of collagen and the limitation of the formation of irreversible cross linkages between the collagen fibrils, were evaluated in vitro on human fibroblast cells. […] Glucose was tested in a final concentration of 0.1 percent, which is equivalent to doubling the quantity of 'cold' glucose of the medium. […] They contained free radioactivity and radioactivity incorporated in the soluble cellular and extracellular proteins. […] The proteins of the soluble fraction were then precipitated by 0.3 volume of 10 percent w/v trichloroacetic acid (TCA), and then washed twice with 3 percent TCA (removal of free radioactivity). […] Aliquots were taken to count the incorporated radioactivity in the proteins and a final precipitation was carried out with TCA to separate the material digested by collagenase (collagenic origin) from the collagenase-insensitive material. The incorporated radioactivity was counted by liquid scintillation after cumulation of the soluble/insoluble protein fractions, in an LKB 1211 Rackbeta counter.

SMILES | synthesis of collagen (quantity of radiolabelled proline in the neosynthesized collagen)
O=C1O[C@H]([C@@H](O)CO)C([O-])=C1OP(=O)([O-])[O-].O=C1O[C@H]([C@@H](O)CO)C([O-])=C1OP(=O)([O-])[O-].[Mg+2].[Mg+2].[Mg+2] [magnesium ascorbyl phosphate] | significantly increased
O=C1O[C@H]([C@@H](O)CO)C(O)=C1O [vitamin C] | significantly increased
